Measurements: ChEMBL document CHEMBL4715772, “A facile stereoselective synthesis of dispiro-indeno pyrrolidine/pyrrolothiazole-thiochroman hybrids and evaluation of their antimycobacterial, anticancer and AchE inhibitory activities” (Bioorg Med Chem, 2016)
≈ marks a conversion by molar mass, not a printed value.

How the values were obtained:
MCF7 [1] = assay: Antiproliferative activity against human MCF7 cells assessed as inhibition of cell proliferation at 50 uM incubated for 72 hrs by CellTiter-Glo assay relative to control; type: functional; settings: MCF7, read-out: INH
[2] = tested on: Mycobacterium tuberculosis; assay: Antimycobacterial activity against Mycobacterium tuberculosis H37Rv assessed as inhibition of bacterial growth by microdilution alamar blue broth assay; type: functional, organism-based
Acetylcholinesterase = Acetylcholinesterase (Homo sapiens, UniProt P22303); assay: Inhibition of AChE (unknown origin) using acetylthiocholine chloride as substrate preincubated with enzyme for 15 mins followed by substrate addition by Ellman's method
HT-29 = assay: Antiproliferative activity against human HT-29 cells assessed as inhibition of cell proliferation incubated for 72 hrs by CellTiter-Glo assay; type: functional, cell-based; settings: HT-29, 72 h
MCF7 [3] = assay: Antiproliferative activity against human MCF7 cells assessed as inhibition of cell proliferation incubated for 72 hrs by CellTiter-Glo assay; type: functional, cell-based; settings: MCF7, 72 h
[4] = Cytotoxicity against African green monkey Vero cells assessed as cell viability after 72 hrs by MTT assay; type: cell-based; settings: chlorocebus sabaeus, read-out: MNCC
[5] = tested on: Mycobacterium tuberculosis; assay: Potency index, ratio of cycloserine IC50 to test compound IC50 for antimycobacterial activity against Mycobacterium tuberculosis H37Rv by microdilution alamar blue broth assay; type: functional
[6] = tested on: Mycobacterium tuberculosis; assay: Potency index, ratio of pyrimethamine IC50 to test compound IC50 for antimycobacterial activity against Mycobacterium tuberculosis H37Rv by microdilution alamar blue broth assay; type: functional

Sequence of Acetylcholinesterase (P22303 whole entry): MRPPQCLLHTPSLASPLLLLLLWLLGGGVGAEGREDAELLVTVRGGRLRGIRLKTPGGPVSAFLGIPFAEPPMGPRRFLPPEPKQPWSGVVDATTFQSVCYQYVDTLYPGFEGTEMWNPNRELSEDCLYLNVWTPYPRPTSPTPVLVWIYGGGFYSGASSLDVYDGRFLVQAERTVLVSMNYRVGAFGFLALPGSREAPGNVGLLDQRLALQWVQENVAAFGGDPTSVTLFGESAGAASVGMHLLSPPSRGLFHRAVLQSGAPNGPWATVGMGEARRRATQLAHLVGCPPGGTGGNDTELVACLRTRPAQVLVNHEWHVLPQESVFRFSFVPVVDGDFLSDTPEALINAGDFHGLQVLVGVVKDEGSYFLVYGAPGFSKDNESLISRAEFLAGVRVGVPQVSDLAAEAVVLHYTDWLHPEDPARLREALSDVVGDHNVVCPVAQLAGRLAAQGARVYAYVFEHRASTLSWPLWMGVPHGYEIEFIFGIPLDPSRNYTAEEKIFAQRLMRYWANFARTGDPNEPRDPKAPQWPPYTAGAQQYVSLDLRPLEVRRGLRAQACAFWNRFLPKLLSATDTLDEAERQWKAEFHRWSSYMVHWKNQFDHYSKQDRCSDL

SMILES | inhibition at 50 µM (MCF7 [1]) [%] | IC50 [2] [µM] | IC90 [2] [µM] | MIC [2] [µM] | IC50 (Acetylcholinesterase) [µM] | IC50 (HT-29) [µM] | IC50 (MCF7 [3]) [µM] | MNTC at 72 h [4] [µg/mL] | Ratio IC50 [5] | Ratio IC50 [6]
O=C1c2ccccc2C(=O)C12N1CSC[C@@H]1[C@@H](c1cccc3ccccc13)[C@@]21CSc2ccccc2C1=O | < 50 | 28.6 | 47.7 | 50 (≈ 26.7 µg/mL) | 16.5 | 93.4 | 102 | > 6.25 | – | –
CN1C[C@@H](c2ccccc2)[C@@]2(CSc3ccccc3C2=O)C12C(=O)c1ccccc1C2=O | < 50 | 15.2 | 27.9 | 100 (≈ 44 µg/mL) | 11.1 | 86.7 | 104 | > 6.25 | – | –
O=C1c2ccccc2C(=O)C12N1CSC[C@@H]1[C@@H](c1cccc(F)c1)[C@@]21CSc2ccccc2C1=O | < 50 | 16.4 | 22 | 50 (≈ 25.1 µg/mL) | 12.2 | 91.7 | 116 | > 6.25 | – | –
CC(C)c1ccc([C@@H]2CN(C)C3(C(=O)c4ccccc4C3=O)[C@]23CSc2ccccc2C3=O)cc1 | < 50 | 25.9 | 44.6 | 100 (≈ 48.2 µg/mL) | 19.8 | 98.3 | 93 | > 6.25 | – | –
CN1C[C@@H](c2ccc(Cl)cc2)[C@@]2(CSc3ccccc3C2=O)C12C(=O)c1ccccc1C2=O | < 50 | 8.46 | 12.4 | 50 (≈ 23.7 µg/mL) | 22.2 | 94 | 97 | > 6.25 | – | –
COc1ccc([C@@H]2[C@H]3CSCN3C3(C(=O)c4ccccc4C3=O)[C@]23CSc2ccccc2C3=O)cc1 | < 50 | 12.9 | 24.6 | 50 (≈ 25.7 µg/mL) | 1.1 | 97.2 | 86 | > 6.25 | – | –
CC[C@@H](CO)NCCN[C@@H](CC)CO [ETHAMBUTOL] | – | < 1.56 | – | 12.5 (≈ 2.55 µg/mL) | – | – | – | > 6.25 | – | –
CN1C[C@@H](c2ccc(F)cc2)[C@@]2(CSc3ccccc3C2=O)C12C(=O)c1ccccc1C2=O | < 50 | 11.1 | 22 | 50 (≈ 22.9 µg/mL) | 23.3 | 99.6 | 105 | > 6.25 | – | –
COc1cccc2c1C(=O)c1c(O)c3c(c(O)c1C2=O)C[C@@](O)(C(=O)CO)C[C@@H]3O[C@H]1C[C@H](N)[C@H](O)[C@H](C)O1 [DOXORUBICIN] | – | – | – | – | – | 12.9 | – | – | – | –
CN1C[C@@H](c2cccc3ccccc23)[C@@]2(CSc3ccccc3C2=O)C12C(=O)c1ccccc1C2=O | < 50 | 6.87 | 14.6 | 25 (≈ 12.2 µg/mL) | 2.12 | 97.2 | 86 | > 6.25 | – | –
O=C1c2ccccc2C(=O)C12N1CSC[C@@H]1[C@@H](c1ccc(Cl)cc1)[C@@]21CSc2ccccc2C1=O | < 50 | 7.2 | 15.5 | 50 (≈ 25.9 µg/mL) | 21.3 | 76.7 | 104 | > 6.25 | – | –
O=C1c2ccccc2C(=O)C12N1CSC[C@@H]1[C@@H](c1cccc(Br)c1)[C@@]21CSc2ccccc2C1=O | < 50 | 17.2 | 35.5 | 50 (≈ 28.1 µg/mL) | 38.3 | 79.6 | 84.8 | > 6.25 | – | –
COc1ccc([C@@H]2CN(C)C3(C(=O)c4ccccc4C3=O)[C@]23CSc2ccccc2C3=O)cc1 | < 50 | 18.3 | 36.5 | 50 (≈ 23.5 µg/mL) | 1.16 | 93.4 | 102 | > 6.25 | – | –
CN1C[C@@H](c2cccc(Br)c2)[C@@]2(CSc3ccccc3C2=O)C12C(=O)c1ccccc1C2=O | < 50 | 5.81 | 16.1 | 25 (≈ 13 µg/mL) | 19.8 | 108 | 110 | > 6.25 | – | –
CC(C)c1ccc([C@@H]2[C@H]3CSCN3C3(C(=O)c4ccccc4C3=O)[C@]23CSc2ccccc2C3=O)cc1 | < 50 | 45 | 76.4 | 100 (≈ 52.6 µg/mL) | 28.3 | 93.4 | 91.8 | > 6.25 | – | –
O=C1c2ccccc2C(=O)C12N1CSC[C@@H]1C(c1ccccc1Cl)[C@@]21CSc2ccccc2C1=O (single isomer, unassigned) | < 50 | 8.57 | 14.7 | 50 (≈ 25.9 µg/mL) | 33.2 | 88.1 | 101 | > 6.25 | – | –
CN1CC(c2ccccc2Br)[C@@]2(CSc3ccccc3C2=O)C12C(=O)c1ccccc1C2=O (single isomer, unassigned) | < 50 | 18.3 | 36.5 | 50 (≈ 25.9 µg/mL) | 27.1 | 86.8 | 92.9 | > 6.25 | – | –

SMILES | inhibition at 50 µM (MCF7 [1]) [%] | IC50 [2] [µM] | IC90 [2] [µM] | MIC [2] [µM] | IC50 (Acetylcholinesterase) [µM] | IC50 (HT-29) [µM] | IC50 (MCF7 [3]) [µM] | MNTC at 72 h [4] [µg/mL] | Ratio IC50 [5] | Ratio IC50 [6]
O=C1c2ccccc2C(=O)C12N1CSC[C@@H]1[C@@H](c1ccc(Br)cc1)[C@@]21CSc2ccccc2C1=O | < 50 | 21.9 | 47.9 | 50 (≈ 28.1 µg/mL) | 34.6 | 86.8 | 92.9 | > 6.25 | – | –
O=C1c2ccccc2C(=O)C12N1CSC[C@@H]1[C@@H](c1cccs1)[C@@]21CSc2ccccc2C1=O | < 50 | 12.9 | 24.6 | 50 (≈ 24.5 µg/mL) | 19.1 | 94 | 97 | > 6.25 | – | –
Cc1ccc([C@@H]2[C@H]3CSCN3C3(C(=O)c4ccccc4C3=O)[C@]23CSc2ccccc2C3=O)cc1 | < 50 | 28.6 | 47.7 | 50 (≈ 24.9 µg/mL) | 7.11 | 90 | 107 | > 6.25 | – | –
CN1C[C@@H](c2cccc(F)c2)[C@@]2(CSc3ccccc3C2=O)C12C(=O)c1ccccc1C2=O | < 50 | 4.28 | 9.86 | 25 (≈ 11.4 µg/mL) | 24.6 | 82.1 | 108 | > 6.25 | – | –
CN1CC(c2ccc(Cl)cc2Cl)[C@@]2(CSc3ccccc3C2=O)C12C(=O)c1ccccc1C2=O (single isomer, unassigned) | < 50 | 1.07 | 1.98 | 6.25 (≈ 3.18 µg/mL) | 24.1 | 90 | 107 | > 6.25 | 12 | 37
O=C1c2ccccc2C(=O)C12N1CSC[C@@H]1C(c1ccc(Cl)cc1Cl)[C@@]21CSc2ccccc2C1=O (single isomer, unassigned) | < 50 | 2.87 | 4.6 | 6.25 (≈ 3.45 µg/mL) | 19.5 | 101 | 105 | > 6.25 | 4 | 12
CN1C[C@@H](c2ccc(Br)cc2)[C@@]2(CSc3ccccc3C2=O)C12C(=O)c1ccccc1C2=O | < 50 | 29.9 | 41.9 | 50 (≈ 25.9 µg/mL) | 28.3 | 88.1 | 101 | > 6.25 | – | –
O=C1c2ccccc2C(=O)C12N1CSC[C@@H]1[C@@H](c1ccccc1)[C@@]21CSc2ccccc2C1=O | < 50 | 16.3 | 25.5 | 100 (≈ 48.4 µg/mL) | 12.9 | 92.2 | 93.5 | > 6.25 | – | –
O=C1c2ccccc2C(=O)C12N1CSC[C@@H]1[C@@H](c1ccccc1Br)[C@@]21CSc2ccccc2C1=O | – | – | – | – | – | – | – | > 6.25 | – | –
Cc1ccc([C@@H]2CN(C)C3(C(=O)c4ccccc4C3=O)[C@]23CSc2ccccc2C3=O)cc1 | < 50 | 47.2 | 66.5 | 100 (≈ 45.4 µg/mL) | 6.6 | 101 | 105 | > 6.25 | – | –
N[C@@H]1CONC1=O [CYCLOSERINE] | – | – | – | 25 (≈ 2.55 µg/mL) | – | – | – | > 6.25 | – | –
NNC(=O)c1ccncc1 [ISONIAZID] | – | – | 0.29 | 0.31 (≈ 0.0425 µg/mL) | – | – | – | > 6.25 | – | –
CN1CC(c2ccccc2Cl)[C@@]2(CSc3ccccc3C2=O)C12C(=O)c1ccccc1C2=O (single isomer, unassigned) | < 50 | 47.2 | 66.5 | 100 (≈ 47.4 µg/mL) | 10.1 | 97.2 | 86 | > 6.25 | – | –
CCc1nc(N)nc(N)c1-c1ccc(Cl)cc1 [PYRIMETHAMINE] | – | – | – | 100 (≈ 24.9 µg/mL) | – | – | – | > 6.25 | – | –
O=C1c2ccccc2C(=O)C12N1CSC[C@@H]1[C@@H](c1ccc(F)cc1)[C@@]21CSc2ccccc2C1=O | < 50 | 13.2 | 25.9 | 50 (≈ 25.1 µg/mL) | 19.8 | 95.9 | 116 | > 6.25 | – | –
CN1C[C@@H](c2cccs2)[C@@]2(CSc3ccccc3C2=O)C12C(=O)c1ccccc1C2=O | < 50 | 25.9 | 44.6 | 100 (≈ 44.6 µg/mL) | 21.2 | 95.9 | 123 | > 6.25 | – | –
